Where two headings read alike, the source gives them in different places. One block for each compound: values may come before it. Numbered stars: 1 amine (or outer) side, 2 acyl side, 3 side chain; on linkers, the order of the positions; unused ones are H or OH. Square brackets hold non-standard residues; d marks the D form. Peptide text beside a SMILES is read from it. * marks the point of attachment. DOTA = O=C(O)CN1CCN(CC(=O)O)CCN(CC(=O)*)CCN(CC(=O)O)CC1; X1 = O=C(Cn1cc([C@H](Cc2ccc(O)cc2)N[*:1])nn1)[*:2]; Nle = CCCC[C@H](N)C(=O)O
Legend:
Blood plasma stability = assay type: in vitro ADME, human
Procedure: Stock solutions were prepared by dissolving the reference substances (Nle^15]-MG11 and PP-F11-N) or the triazolominigastrins (1 mg, 750 nmol) in ammonium acetate buffer (50 µL, 0.5 M, pH 5.5) and addition of water to a final peptide concentration of 250 µM (approx. 0.3 mg/mL). For in vitro experiments, DOTA-functionalized compounds (1 nmol, 4 µL of 250 µM stock solution) were added to a mixture of aq. HCl (22.5 µL, 0.05 M, pH 1.3), ammonium acetate buffer (10 µL, 0.5 M, pH 5.5) and aq. sodium ascorbate (5 µL, 0.5 M). 20-25 MBq of [^177Lu]LuCl3 (ca. 2.5 µL, in 0.04 M HCl, 20-25 MBq/nmol) were added and the mixtures were heated to 95 °C for 20 min in a heating block. After labeling, a 1 µL aliquot of the labeling mixture was added to aq. DTPA (200 µL, 25 µM) for quality control by γ-HPLC.
The ^177Lu-labeled compounds were diluted with 0.9% NaCl to a concentration of 3.75 µM and incubated (375 pmol, 100 µL, 7.5-12 MBq) in human blood plasma (1.5 mL) at 37 °C. At different time points (0.5, 1, 2, 4, 6 and 24 h) aliquots (75 µL) were taken and the proteins were precipitated in CH3CN (100 µL) and centrifuged (2 min, 14680 rpm, rt). The supernatant (75 µL) was diluted with water (75 µL) and analyzed by γ-HPLC. One phase decay nonlinear regression (A = A0 ^∗ e^-kt) was used to calculate the half-lifes (t1/2) of the peptide conjugates with GraphPad Prism (n=2-3).

CCK2R-positive tumors = settings: cited from earlier work
A431-CCK2R cells = assay: Cell internalization experiments with 177Lu-labeled conjugates; assay type: cell-based, Human
Procedure: Stock solutions were prepared by dissolving the reference substances (Nle^15]-MG11 and PP-[…]) or the triazolominigastrins (1 mg, 750 nmol) in ammonium acetate buffer (50 μL, 0.5 M, pH 5.5) and addition of water to a final peptide concentration of 250 μM (approx. 0.3 mg/mL). For in vitro experiments, DOTA-functionalized compounds (1 nmol, 4 μL of 250 μM stock solution) were added to a mixture of aq. HCl (22.5 μL, 0.05 M, pH 1.3), ammonium acetate buffer (10 μL, 0.5 M, pH 5.5) and aq. sodium ascorbate (5 μL, 0.5 M). 20-25 MBq of [^177Lu]LuCl3 (ca. 2.5 μL, in 0.04 M HCl, 20-25 MBq/nmol) were added and the mixtures were heated to 95 °C for 20 min in a heating block. After labeling, a 1 μL aliquot of the labeling mixture was added to aq. DTPA (200 μL, 25 μM) for quality control by γ-HPLC. Human epidermoid carcinoma cells A431 stably transfected to express the CCK2R (A431-CCK2R cells)[Aloj L., Journal of Nuclear Medicine, 2004, 45, 485-494] were grown in monolayers in NunclonTM Delta treated cell culture flasks in humidified air at 5% CO2 and 37 °C. The cells were maintained in the culture medium DMEM (high glucose (4.5 g/L)) supplemented with 20 mM L-Gln and 10% FCS. The culture was passaged regularly at 80 to 90% confluency using a 0.25% trypsin 0.38‰ EDTA solution. Assays were conducted in the assay medium DMEM (high glucose) containing 0.1% BSA. On the day prior to the experiment A431-CCK2R cells were placed in six-well plates (0.85·10^6 cells/well) in cell culture medium and incubated overnight for attachment. On the day of the experiment, the medium was removed and the cells were washed twice with 1 mL PBS. The plates were put on ice for preparation. 0.9 mL of assay medium was dispensed to all wells except the ones for nonspecific binding. 0.2 pmol of ^177Lu-labeled conjugates (100 μL, 2 nM in assay medium, ca. 4.2 kBq) were dispensed to all wells. For the determination of nonspecific binding, a 5000-fold excess of […] (1 nmol, 100 μL, 10 μM in assay medium) was added to 0.8 mL of assay medium containing the ^177Lu-labeled conjugates. The plates were incubated at 37 °C in 5% CO2 to allow binding and internalization. The process was stopped after 30, 60, 120, and 240 min by collection of the supernatant. The cells were washed twice with PBS (each 0.6 mL). The combined supernatants represent the free, unbound fraction of radioactivity. Membrane-bound activity was determined by incubating the cells with cold saline glycine buffer (0.6 mL, 0.05 M, pH 2.8) twice for 5 min at rt. The internalized fraction was isolated by two cycles of cell lysis with NaOH (each 0.6 mL, 1 M, 10 min, rt). The radioactivity of the fractions was measured by a COBRA-II gamma counter and is represented as percentage of total applied radioactivity dosage (n=3-5 in triplicates).

[1] = compared with PP-F11N, Figure 1
[2] = compared with [Nle^15]MG11, Figure 1

- stability in plasma over 24 hours (Blood plasma stability): high stability
Compound: CCCC[C@H](NC(=O)[C@H](Cc1c[nH]c2ccccc12)NC(=O)Cn1cc([C@H](Cc2ccc(O)cc2)NC(=O)[C@H](C)NC(=O)[C@@H](CCC(=O)O)NC(=O)[C@@H](CCC(=O)O)NC(=O)[C@@H](CCC(=O)O)NC(=O)[C@@H](CCC(=O)O)NC(=O)[C@@H](CCC(=O)O)NC(=O)[C@@H](CCC(=O)O)NC(=O)CN2CCN(CC(=O)O)CCN(CC(=O)O)CCN(CC(=O)O)CC2)nn1)C(=O)N[C@@H](CC(=O)O)C(=O)N[C@@H](Cc1ccccc1)C(N)=O [NMG 6, DOTA-(DGlu)5-DGlu-Ala-Tyr-Ψ[Tz]-Gly-Trp-Nle-Asp-Phe-NH2]

Compound: CCCC[C@H](NC(=O)[C@H](Cc1c[nH]c2ccccc12)NC(=O)CNC(=O)[C@H](Cc1ccc(O)cc1)NC(=O)[C@H](C)NC(=O)[C@@H](CCC(=O)O)NC(=O)[C@@H](CCC(=O)O)NC(=O)[C@@H](CCC(=O)O)NC(=O)[C@@H](CCC(=O)O)NC(=O)[C@@H](CCC(=O)O)NC(=O)[C@@H](CCC(=O)O)NC(=O)CN1CCN(CC(=O)O)CCN(CC(=O)O)CCN(CC(=O)O)CC1)C(=O)N[C@@H](CC(=O)O)C(=O)N[C@@H](Cc1ccccc1)C(N)=O [PP-F11N, reference compound]
- tumor-to-kidney ratio (CCK2R-positive tumors; according to WO 2015/067473 A1): excellent
- stability in plasma over 24 hours (Blood plasma stability; 177Lu-labeled, human blood plasma, 37 °C, over 24 hours, Figure 3): high stability

- stability in plasma (Blood plasma stability): reduced stability
Compound: CCCC[C@H](NC(=O)[C@H](Cc1c[nH]c2ccccc12)NC(=O)Cn1cc([C@H](Cc2ccc(O)cc2)NC(=O)[C@H](C)NC(=O)[C@@H](CCC(=O)O)NC(=O)CN2CCN(CC(=O)O)CCN(CC(=O)O)CCN(CC(=O)O)CC2)nn1)C(=O)N[C@@H](CC(=O)O)C(=O)N[C@@H](Cc1ccccc1)C(N)=O [TZMG 6, DOTA-DGlu-Ala-Tyr-Ψ[Tz]-Gly-Trp-Nle-Asp-Phe-NH2] ({DOTA}-[dE]A[X1]W[Nle]DF-NH2)

- stability in plasma (Blood plasma stability): significantly higher stability
Compound: CCCC[C@H](NC(=O)[C@H](Cc1c[nH]c2ccccc12)NC(=O)Cn1cc([C@H](Cc2ccc(O)cc2)n2cc([C@H](C)n3cc([C@@H](CCC(=O)O)NC(=O)CN4CCN(CC(=O)O)CCN(CC(=O)O)CCN(CC(=O)O)CC4)nn3)nn2)nn1)C(=O)N[C@@H](CC(=O)O)C(=O)N[C@@H](Cc1ccccc1)C(N)=O [TZMG 876, DOTA-DGlu-Ψ[Tz]-Ala-Ψ[Tz]-Tyr-Ψ[Tz]-Gly-Trp-Nle-Asp-Phe-NH2]

- stability in plasma over 24 hours (Blood plasma stability): high stability
Compound: DOTA-(DGlu)5-DGlu-Ψ[Tz]-Ala-Tyr-Ψ[Tz]-Gly-Trp-Nle-Asp-Phe-NH2 [NMG 86]
- cell internalization after 4 h (A431-CCK2R cells; [1]): higher
- cell internalization kinetics (A431-CCK2R cells; [1]): faster

Compound: DOTA-DGlu-DGlu-DGlu-DGlu-DGlu-DGlu-Ala-Tyr-Gly-Trp-Met-Asp-Phe-NH2 [PP-F11]
- accumulation in the tumor (CCK2R-positive tumors; [^177Lu]Lu-PP-F11): high favorable accumulation
- accumulation in the kidneys (CCK2R-positive tumors; in vivo): low accumulation

- stability in plasma (Blood plasma stability): significantly higher stability
Compound: DOTA-DGlu-Ψ[Tz]-Ala-Tyr-Ψ[Tz]-Gly-Trp-Nle-Asp-Phe-NH2 [TZMG 86]
- cell internalization after 4 h (A431-CCK2R cells; [2]): higher
- cell internalization kinetics (A431-CCK2R cells; [2]): faster

Reference: patent publication EP3868394A1, “MONO- AND MULTI-TRIAZOLOMINIGASTRINS FOR TARGETING OF CCK2R-POSITIVE NEOPLASMS” (PAUL SCHERRER INSTITUT, priority 2020, dated 2021)
